Laboratory results: patent US20260306459A1, “INHIBITORS OF NSUN1- AND NSUN2-MEDIATED ACTIVE STRUCTURES” (THE UNIVERSITY OF CHICAGO, priority 2023, published 2026)
“Also recorded” adds a separate entry of the source.

Experiments:
H82 cells = experiment: MTT growth inhibition in venetoclax-resistant lung cancer cell line H82; format: cell-based, human; settings: H82, venetoclax-resistant human lung cancer, wrapped cell
Source text: (§1) FIGS. 8A-8B display a schematic of an 5-ethynyl uridine click chemistry (EC)-coupled flow cytometry (EC-FCM) assay (FIG. 8A), while FIG. 8B depicts the results of an EC-FCM assay showing distinct drug-specific signatures/patterns of nascent RNA synthesis inhibition in the venetoclax sensitive leukemia cell line (K1). The MTT assay measures cell viability and proliferation as well as cytotoxicity of compounds by assessing cellular metabolic activity. The associated measurement can be described as cell viability, cell killing, and/or growth inhibition.
(§2) FIGS. 11A-11D display scatter plot representations of screening results for AI-designed NSUN1-targeting compound libraries in a venetcoclax-resistant human myeloid leukemia cell line (SC), lung cancer cell line (H82), and venetoclax resistant human […], and a schematic representation of categorization of the results. A human myeloid leukemia cell Line (SC), a lung cancer cell line (H82 or K562) were both incubated at drug concentration 10 μM/μL overnight. MTT assays were performed after 24 hours, and changes were calculated as the percentage of mean absorbance (n=3) versus mean absorbance of drug-free control (n=3). Negative outliers indicated in red ovals. FIG. 11A depicts the results of an NSUN1-targeting drug library, 74 drugs, comparing growth/inhibition in H-82 (Y axis) and SC (X axis) cell lines. FIG. 11B depicts the results of an NSUN2-targeting drug library, 102 drugs, comparing growth/inhibition in H-82 (Y axis) and SC (X axis) cell lines. FIG. 11C depicts the results of an NSUN1-targeting drug library, 74 drugs, comparing growth/inhibition in K562 (Y axis) and SC (X axis) cell lines. FIG. 11D is a schematic representation showing categorization of the results from screens performed as described in FIG. 11, and validation experiments as described in FIG. 12.
FIGS. 12A-12J display bar graphs displaying the results of validation experiments for small molecule inhibitors of NSUN1/2-ACS interactions as identified herein. Drug validation of select SC, H82, and/or K562 inhibiting compounds in mouse acute myeloid leukemia cell Line (C1498), SC cells, H82 cells, and/or K562 cells. NSUN1-17 and/or venetoclax acted as controls. Inhibition of cell vitality was identified as dose-dependent for certain small molecules, not merely cytotoxic. In brief, stock with concentration 0.4×10^6 test (e.g., SC, H82, K562, or C1498, as labelled) cells/mL, and 10 μM/μL drug was serially diluted into drug-free cell stock to reach concentrations of 1 μM/μL and […] and split into 100 μL volumes in a 96-well plate. MTT assays performed after 24 hour incubation. Percentages calculated as a difference in mean absorbance of each drug triplicate and mean absorbance in drug-free cell triplicate. […]

C1498 cells = experiment: MTT growth inhibition in myeloid leukemia cell line C1498; format: cell-based, mouse; settings: C1498, mouse myeloid leukemia, wrapped cell
Source text: as §1
(§3) FIGS. 12A-12J display bar graphs displaying the results of validation experiments for small molecule inhibitors of NSUN1/2-ACS interactions as identified herein. Drug validation of select SC, H82, and/or K562 inhibiting compounds in mouse acute myeloid leukemia cell Line (C1498), SC cells, H82 cells, and/or K562 cells. NSUN1-17 and/or venetoclax acted as controls. Inhibition of cell vitality was identified as dose-dependent for certain small molecules, not merely cytotoxic. In brief, stock with concentration 0.4×10^6 test (e.g., SC, H82, K562, or C1498, as labelled) cells/mL, and 10 μM/μL drug was serially diluted into drug-free cell stock to reach concentrations of 1 μM/μL and […] and split into 100 μL volumes in a 96-well plate. MTT assays performed after 24 hour incubation. Percentages calculated as a difference in mean absorbance of each drug triplicate and mean absorbance in drug-free cell triplicate. Red bars represent standard errors. The concentration of drug represented by each column is from left to right as written in the figure keys. FIGS. 12A-12E provide results from independent repeats for different groupings of small molecules tested against C1498 cells. FIGS. 12F-12G provide results from independent repeats for different groupings of small molecules tested against H82 cells. FIGS. […] provide results from independent repeats for different groupings of small molecules tested against SC cells. FIG. 12J provide results from an assay against K562 cells.
(§4) The inventors then designed a protocol for functional screening of NSUN1/2-targeting supercomputing/AI-derived compound libraries as schematically presented in FIGS. 5A-5G. Briefly, the library compounds were obtained from various chemical companies/vendors and dissolved in DMSO, and then applied to 96-well plates that contained leukemia and/or other cancer cells that were resistant to venetoclax. Both the routine colorimetric assay (MTT assay) and the newly developed NSUN1/2-targeting fluorescence quenching and release (FQR) assay were performed to select bioactive compounds for further quantitative study to confirm that they targetNSUN1/2 and their associated ACS. As described below, the compound libraries screened through cancer cell proliferation and/or NSUN1/2 localization to the ACS successfully identified numerous promising compounds that can inhibit the leukemia cell growth and appear to target the NSUN1-mediated ACS (see Table 2). This success has proven the feasibility and efficacy of the described supercomputing/AI design and functional screening of the NSUN1/2-targeting drug libraries. In some aspects, screening is conducted using drug-resistant cell lines. In some aspects, screening is conducted using drug-sensitive cell lines. In some aspects, screening is conducted in leukemia cell lines. In some aspects, screening is conducted in other cancer cell lines besides leukemia (e.g., lung cancer cell lines). In some aspects, NSUN1/2-ACS inhibitors identified are verified in additional cell lines and/or animal models (see e.g., Tables 4-6).

SC cells = experiment: MTT growth inhibition in venetoclax-resistant monocytic leukemia cell line SC; format: cell-based, human; settings: for Effective cell lines: SC: venetoclax-resistant human monocytic leukemia, wrapped cell
Source text: as §1, §2, §3
The inventors then designed a protocol for functional screening of NSUN1/2-targeting supercomputing/AI-derived compound libraries as schematically presented in FIGS. 5A-5G. Briefly, the library compounds were obtained from various chemical companies/vendors and dissolved in DMSO, and then applied to 96-well plates that contained leukemia and/or other cancer cells that were resistant to venetoclax. […]

[1] = tested on: leukemia and lung cancer cell lines; experiment: Functional (MTT) screening of NSUN1/2-targeting libraries in leukemia and lung cancer cell lines; format: cell-based, human; settings: for Bioactive positive hit, tumor cell growth inhibition and lineage preference: leukemia and lung cancer cell lines; for Efficacy of tumor cell growth inhibition: multiple leukemia lines and/or lung cancer cell lines
Protocol: as §2, §3
as §4, with “In some aspects, screening is conducted using drug-sensitive cell lines. In some aspects, screening is conducted in leukemia cell lines. In some aspects, screening is conducted in other cancer cell lines besides leukemia (e.g., lung cancer cell lines). In some aspects, NSUN1/2-ACS inhibitors identified are verified in additional cell lines and/or animal models (see e.g., Tables 4-6).” left out

[2] = target: T1, NSUN2-RNA polymerase II (RNAPII) interaction (Homo sapiens, UniProt Q08J23); experiment: PL-RCA-FCM, NSUN2-RNAPII interaction; format: cell-based
T1 construct: RNAPII CTD2-S2P
T1 sequence (Q08J23 whole entry): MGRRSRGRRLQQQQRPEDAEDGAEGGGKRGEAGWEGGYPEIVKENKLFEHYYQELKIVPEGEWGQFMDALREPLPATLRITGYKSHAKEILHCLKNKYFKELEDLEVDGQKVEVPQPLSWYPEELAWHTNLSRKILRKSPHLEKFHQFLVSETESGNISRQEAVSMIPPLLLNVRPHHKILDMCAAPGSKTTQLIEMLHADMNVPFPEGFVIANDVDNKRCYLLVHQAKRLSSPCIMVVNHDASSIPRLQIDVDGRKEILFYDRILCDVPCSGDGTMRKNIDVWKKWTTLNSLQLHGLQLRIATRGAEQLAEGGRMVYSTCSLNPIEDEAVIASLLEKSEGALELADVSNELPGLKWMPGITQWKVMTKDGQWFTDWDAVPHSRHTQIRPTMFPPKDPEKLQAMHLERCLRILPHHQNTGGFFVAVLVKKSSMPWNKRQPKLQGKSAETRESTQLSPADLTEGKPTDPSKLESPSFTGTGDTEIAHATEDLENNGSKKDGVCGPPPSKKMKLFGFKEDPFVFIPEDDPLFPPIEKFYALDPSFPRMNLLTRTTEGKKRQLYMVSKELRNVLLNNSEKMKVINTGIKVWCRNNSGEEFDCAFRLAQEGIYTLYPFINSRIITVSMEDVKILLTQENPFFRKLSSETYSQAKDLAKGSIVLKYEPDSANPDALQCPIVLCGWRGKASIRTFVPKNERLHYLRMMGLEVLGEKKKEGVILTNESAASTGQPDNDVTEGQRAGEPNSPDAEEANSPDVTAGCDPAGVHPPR
Source text: (§5) Black=negative control, blue=positive control, no drug=red.
(§6) The PL-RCA-CM/imaging technique utilized in the inventors previous work (Cheng, J. X. et al., Nature Communications 2018) was suitable to visualize and semi-quantify the NSUN1/2-mediated ACS in cells. However, the previous technique had the disadvantage of having a low sensitivity and low throughput. To overcome this bottleneck, as described herein, the inventors developed NSUN1/2-targeting fluorescence quenching and release (FQR) plate assay (FIG. 6A) and PL-RCA flow cytometry (PL-RCA-FCM) technology (FIG. 6B) for screening of NSUN1/2-targeting drug libraries and quantitatively measuring NSUN1/2-mediated ACS with and without drugs in a lineage-specific and high-throughput manner. The new PL-RCA-FCM detected very strong PL-RCA signals (>2 logs) of the NSUN2-mediated interactions with m5C, RNAPII CTD2-S2P and BRD4, particularly in the venetoclax-resistant leukemia cells (SC) (FIG. 6C), in comparison to the venetoclax-sensitive K1 cells (FIG. 6D).

NSUN2-c-MYC interaction = NSUN2-c-MYC interaction (Homo sapiens, UniProt Q08J23); experiment: PL-RCA-FCM, NSUN2-c-MYC interaction; format: cell-based
NSUN2-c-MYC interaction, sequence (Q08J23 whole entry): as above
Source text: as §5, §6

NSUN1-c-MYC interaction = NSUN1-c-MYC interaction (Homo sapiens, UniProt P46087); experiment: PL-RCA-FCM, NSUN1-c-MYC interaction; format: cell-based
NSUN1-c-MYC interaction, sequence (P46087 whole entry): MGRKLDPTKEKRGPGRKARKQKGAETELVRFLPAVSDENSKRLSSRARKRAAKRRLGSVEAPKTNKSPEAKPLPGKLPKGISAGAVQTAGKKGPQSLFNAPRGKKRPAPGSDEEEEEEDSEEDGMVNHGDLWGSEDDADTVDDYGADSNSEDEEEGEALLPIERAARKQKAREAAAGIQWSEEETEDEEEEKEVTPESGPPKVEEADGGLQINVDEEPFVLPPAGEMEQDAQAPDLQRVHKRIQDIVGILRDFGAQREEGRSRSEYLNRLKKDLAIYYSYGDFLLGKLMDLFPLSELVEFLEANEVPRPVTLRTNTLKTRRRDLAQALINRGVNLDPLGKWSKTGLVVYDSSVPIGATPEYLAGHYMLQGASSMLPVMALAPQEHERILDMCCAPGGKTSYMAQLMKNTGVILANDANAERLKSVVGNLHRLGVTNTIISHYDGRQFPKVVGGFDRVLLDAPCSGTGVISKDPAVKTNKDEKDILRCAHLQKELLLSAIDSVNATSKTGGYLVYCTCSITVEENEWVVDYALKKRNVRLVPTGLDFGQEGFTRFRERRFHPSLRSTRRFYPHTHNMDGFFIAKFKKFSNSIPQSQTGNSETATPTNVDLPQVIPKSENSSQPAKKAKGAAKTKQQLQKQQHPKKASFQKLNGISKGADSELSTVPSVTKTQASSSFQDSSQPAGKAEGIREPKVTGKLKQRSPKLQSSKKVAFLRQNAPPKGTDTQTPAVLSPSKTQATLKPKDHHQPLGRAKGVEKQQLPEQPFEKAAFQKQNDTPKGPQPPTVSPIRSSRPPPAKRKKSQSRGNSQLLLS
Source text: (§7) FIGS. 5A-5G display a pipeline of computational design and functional screening of small-molecule compound libraries as well as exemplary characterization and validation of identified positive hit compounds and their targets. FIGS. 5A-5D display an exemplary experimental procedure, beginning with characterization of NSUN1 and/or NSUN2 putative binding modules for interaction with ACS components (FIGS. 5A-5B), a graphic displaying the design of a small molecule library and testing of the putative small molecule NSUN1/2-ACS inhibitors in cell lines (FIG. 5C), characterization of the NSUN1/2-ACS inhibitors interactions with the ACS machinery (FIG. 5D).
as §5
(§8) The PL-RCA-CM/imaging technique utilized in the inventors previous work (Cheng, J. X. et al., Nature Communications 2018) was suitable to visualize and semi-quantify the NSUN1/2-mediated ACS in cells. […] To overcome this bottleneck, as described herein, the inventors developed NSUN1/2-targeting fluorescence quenching and release (FQR) plate assay (FIG. 6A) and PL-RCA flow cytometry (PL-RCA-FCM) technology (FIG. 6B) for screening of NSUN1/2-targeting drug libraries and quantitatively measuring NSUN1/2-mediated ACS with and without drugs in a lineage-specific and high-throughput manner. […]

[3] = target: T2, NSUN1-eRNAPII interaction (Homo sapiens, UniProt P46087); experiment: PL-RCA-FCM, NSUN1-eRNAPII interaction; format: cell-based
T2 construct: RNAPII
T2 sequence (P46087 whole entry): as above
Source text: as §7, §5, §8

[4] = target: NSUN2-mitochondrial translation initiation factor 3 (MTIF3) interaction (Homo sapiens, UniProt Q08J23); experiment: PL-RCA-FCM, NSUN2-MTIF3 interaction; format: cell-based
NSUN2-mitochondrial translation initiation factor 3 (MTIF3) interaction, sequence (Q08J23 whole entry): as the sequence (Q08J23 whole entry) above
Source text: (§9) FIG. 23 provides PL-RCA-FCM results and an associated schematic showing that NSUN2-11 can disrupt the interactions between NSUN2 and mitochondrial RNA polymerase (POLRMT) as well as mitochondrial translation initiation factor 3 (MTIF3). RNA:m5C/NSUN1/2-mediated transcription and translation complexes (RNATTC) mediate multidrug resistance through regulating multi-bioprocesses and multi-organelles' functions in cancer cells.
as §6

[5] = target: NSUN2-mitochondrial RNA polymerase (POLRMT) interaction (Homo sapiens, UniProt Q08J23); experiment: PL-RCA-FCM, NSUN2-POLRMT interaction; format: cell-based
NSUN2-mitochondrial RNA polymerase (POLRMT) interaction, sequence (Q08J23 whole entry): as above
Source text: as §9, §6

| SMILES | Effective cell lines: C1498 (C1498 cells) | Bioactive positive hit, tumor cell growth inhibition and lineage preference [1] | further results |
| --- | --- | --- | --- |
| NC1(C(=O)NC(CCO)c2ccc(Cl)cc2)CCN(c2ncnc3[nH]ccc23)CC1 (stereo not shown) [NSUN1-9] | SC & C1498 > | inhibits tumor cell growth in a leukemia preferential manner | Effective cell lines: H82 (H82 cells): SC & C1498 >; Effective cell lines: SC (SC cells): SC & C1498 > |
| CC(C)C[C@H](NC(=O)[C@@H](O)[C@H](N)Cc1ccccc1)C(=O)O [NSUN1-10, Bestatin or Ubenimex, reference compound] | – | inhibits tumor cell growth in a leukemia preferential manner | – |
| Nc1ncccc1-c1cc(Cc2ccc(COc3ccccn3)cc2)no1 [NSUN1-11] | – | inhibits tumor cell growth in a non-lineage specific manner | Inhibition of growth of venetoclax-resistant leukemia (SC) cells (SC cells): inhibition of the growth of venetoclax-resistant SC cells; also recorded: inhibit drug (venetoclax)-resistant leukemia cells |
| C=CC(=O)Nc1cccc(-c2cccc3cnc(Nc4ccc(N5CCN(CCO)CC5)c(F)c4F)nc23)c1 [NSUN1-14] | – | – | Efficacy of tumor cell growth inhibition [1]: high-efficacy of tumor cell growth inhibition |
| CC(C)Cc1nc(NC(=O)c2cc(-c3ccc4c(c3)CCO4)n[nH]2)n[nH]1 [NSUN1-17.16] | – | inhibits tumor cell growth in a non-lineage specific manner | – |
| NC1(Cc2ccc(Cl)cc2)CCN(c2ncnc3[nH]ccc23)CC1 [NSUN1-19] | H82 > SC & | inhibits tumor cell growth in a lung cancer preferential manner | Effective cell lines: H82 (H82 cells): H82 > SC &; Effective cell lines: SC (SC cells): H82 > SC & |
| Nc1nc(Cn2c(=O)oc3ccccc32)nc(Nc2ccccc2)n1 [NSUN1-22] | C1498 (weakly) | inhibits tumor cell growth in a lung cancer preferential manner | – |
| Oc1nc(Nc2ccc(Cl)cc2)nc2nccc(-c3ccncc3)c12 [NSUN1-67] | – | inhibits tumor cell growth in a non-lineage specific manner | – |
| Cc1[nH]nc2ccc(-c3cncc(OCC(N)Cc4ccccc4)c3)cc12 (stereo not shown) [NSUN1-73] | – | – | Efficacy of tumor cell growth inhibition [1]: high-efficacy of tumor cell growth inhibition |
| O=C(Nc1cccc(-c2nnc3n2CCCC3)c1)c1cc(-c2ccccc2)n[nH]1 [NSUN1-74] | C1498 (weakly) | inhibits tumor cell growth in a non-lineage specific manner | – |
| COc1ccc2c(c1)CCc1c(C(=O)NCCc3nc4cc(C)ccc4[nH]3)n[nH]c1-2 [NSUN2-11] | – | inhibits tumor cell growth in a non-lineage specific manner | Effect on NSUN2-mediated interaction with RNA polymerase II [2]: can disrupt; Effect on NSUN2-mediated interaction with c-MYC (NSUN2-c-MYC interaction): can disrupt; Effect on NSUN1 interaction with c-MYC (NSUN1-c-MYC interaction): can disrupt; Effect on NSUN1 interaction with eRNAPII/RNAPII [3]: can disrupt; Effect on NSUN2-MTIF3 interaction [4]: can disrupt; Effect on NSUN2-POLRMT interaction [5]: can disrupt |
| O=c1ccc2ccc(OCN3CCN(c4cccc5sccc45)CC3)cc2[nH]1 [NSUN2-35, reference compound] | – | inhibits tumor cell growth in a lung cancer preferential manner | – |
| O=C(Nc1ccc(CN2CCCCC2)cc1)c1cccc(COc2ccc(Br)cc2)c1 [NSUN2-37] | H82 & SC > | inhibits tumor cell growth in a non-lineage specific manner | Effective cell lines: H82 (H82 cells): H82 & SC >; Effective cell lines: SC (SC cells): H82 & SC > |
